Experimental data reported in patent US8999970B2, “Administration of an anti-obesity compound to individuals with renal impairment” (Arena Pharmaceuticals, Inc., priority 2010, dated 2015).
Several values for one entry are separate records, joined by “and”; a condition that tells them apart may be missing. Equal entries are not always repeated.

What was measured:
[1] = tested on: panel of receptors, ion channels and transporters; assay: Pharmacological activity of metabolites at a panel of receptors, ion channels and transporters
[2] = Preclinical toxicology: M1 and M5 pharmacokinetics after oral administration of lorcaserin, 52 wk, mice
[3] = Preclinical toxicology: M1 and M5 pharmacokinetics after oral administration of lorcaserin, 52 wk, rats
[4] = Preclinical toxicology: lorcaserin, M1 and M5 pharmacokinetics after oral administration of lorcaserin, 52 wk, monkeys; details: for AUC0-inf / AUClast / Cmax / tmax: Monkeys, 52 wk; for Dose proportionality of plasma exposure: monkeys, Day 1, 2 to 125 mg/kg, both sexes
Method: Lorcaserin doses of 0, 2, 10, 50, and 125 mg/kg in a 5 mL/kg dose volume were administered by nasogastric intubation once daily for 12 months to cynomolgus monkeys (4 to 6/sex/group). Two animals/sex from the control, 50 and 125 mg/kg groups were continued on study without further dosing for an additional 4 weeks prior to termination. For the first 91 days of the study, dose solutions were prepared using anhydrous lorcaserin. Starting on Day 92 and continuing for the remainder of the study, dose solutions were prepared using lorcaserin hemihydrate to match the intended commercial form. […] Evaluations included clinical signs, food consumption, BW, electrocardiograms, ophthalmic exams, and clinical pathology indices. Blood samples were collected for TK analysis on Day 1, Week 4, Day 91, Day 92, and Week 52. A full necropsy was conducted on all animals, and tissues were collected, preserved, processed, and examined microscopically. Additional sections of heart were collected to allow comprehensive evaluation of all heart valves. Heart histopathologic evaluation included atria, ventricles, interventricular septum, both AV valves (mitral and tricuspid), and the aortic and pulmonic valves.

[5] = Pivotal phase 3 clinical trial program (weight loss); type: in vivo, human
From the text: (§1) In December 2009, Arena Pharmaceuticals submitted a New Drug Application, or NDA, for lorcaserin to the FDA. The NDA submission is based on an extensive data package from lorcaserin's clinical development program that includes 18 clinical trials totaling 8,576 patients. […] About two-thirds of patients achieved at least 5% weight loss and over one-third achieved at least 10% weight loss. On average, patients lost 17 to 18 pounds or about 8% of their weight. Secondary endpoints, including body composition, lipids, cardiovascular risk factors and glycemic parameters improved compared to placebo. In addition, heart rate and blood pressure went down. […] Lorcaserin improved quality of life, and there was no signal for depression or suicidal ideation. The only adverse event that exceeded the placebo rate by 5% was generally mild or moderate, transient headache. Based on a normal BMI of 25, patients in the first phase 3 trial lost about one-third of their excess body weight. The average weight loss was 35 pounds or 16% of body weight for the top quartile of patients in the second phase 3 trial.
as §1, with “Heart” for “In addition, heart”

[6] = lorcaserin 25 mg/kg/day oral, F
[7] = lorcaserin 25 mg/kg/day oral, M
[8] = lorcaserin 50 mg/kg/day oral, F
[9] = lorcaserin 50 mg/kg/day oral, M
[10] = lorcaserin 10 mg/kg/day oral, F
[11] = lorcaserin 10 mg/kg/day oral, M
[12] = lorcaserin 30 mg/kg/day oral, F
[13] = lorcaserin 30 mg/kg/day oral, M
[14] = lorcaserin 100 mg/kg/day oral, F
[15] = lorcaserin 100 mg/kg/day oral, M
[16] = lorcaserin 125 mg/kg/day oral, F
[17] = lorcaserin 125 mg/kg/day oral, M
[18] = phase 3 program, treated for up to two years

C[C@H]1CN(S(=O)(=O)O)CCc2ccc(Cl)cc21 [Compound M1, lorcaserin sulfamate]
Activity at serotonin receptors or at a panel of more than 60 GPCRs, transporters and ion channels [1]: neither metabolite is active | Pharmacological activity against a panel of receptors, ion channels and transporters ([1]; concentration of 10 μM): pharmacologically inactive | AUC0-inf ([2]; lorcaserin 5 mg/kg/day oral, F): 75.2 µg·h/mL | AUClast ([2]; lorcaserin 5 mg/kg/day oral, F): 74.4 µg·h/mL | Cmax ([2]; lorcaserin 5 mg/kg/day oral, F): 14400 ng/mL | tmax ([2]; lorcaserin 5 mg/kg/day oral, F): 0.5 h | AUC0-inf ([2]; lorcaserin 5 mg/kg/day oral, M): 61.2 µg·h/mL | AUClast ([2]; lorcaserin 5 mg/kg/day oral, M): 59.7 µg·h/mL | Cmax ([2]; lorcaserin 5 mg/kg/day oral, M): 10800 ng/mL | tmax ([2]; lorcaserin 5 mg/kg/day oral, M): 0.5 h | AUC0-inf [2, 6]: 221 µg·h/mL | AUClast [2, 6]: 217 µg·h/mL | Cmax [2, 6]: 39800 ng/mL | tmax [2, 6]: 0.5 h | AUClast [2, 7]: 223 µg·h/mL | Cmax [2, 7]: 25400 ng/mL | tmax [2, 7]: 0.5 h | AUC0-inf [2, 8]: 356 µg·h/mL | AUClast [2, 8]: 345 µg·h/mL | Cmax [2, 8]: 49100 ng/mL | tmax [2, 8]: 0.5 h | AUC0-inf [2, 9]: 319 µg·h/mL | AUClast [2, 9]: 308 µg·h/mL | Cmax [2, 9]: 42700 ng/mL | tmax [2, 9]: 0.5 h | AUC0-inf [3, 10]: 200 µg·h/mL | AUClast [3, 10]: 193 µg·h/mL | Cmax [3, 10]: 16300 ng/mL | tmax [3, 10]: 1.0 h | AUC0-inf [3, 11]: 175 µg·h/mL | AUClast [3, 11]: 170 µg·h/mL | Cmax [3, 11]: 15400 ng/mL | tmax [3, 11]: 1.0 h | AUC0-inf [3, 12]: 443 µg·h/mL | AUClast [3, 12]: 412 µg·h/mL | Cmax [3, 12]: 31700 ng/mL | tmax [3, 12]: 4.0 h | AUC0-inf [3, 13]: 338 µg·h/mL | AUClast [3, 13]: 319 µg·h/mL | Cmax [3, 13]: 23900 ng/mL | tmax [3, 13]: 1.0 h | AUC0-inf [3, 14]: 1480 µg·h/mL | AUClast [3, 14]: 1050 µg·h/mL | Cmax [3, 14]: 63700 ng/mL | tmax [3, 14]: 2.0 h | AUC0-inf [3, 15]: 927 µg·h/mL | AUClast [3, 15]: 633 µg·h/mL | Cmax [3, 15]: 36000 ng/mL | tmax [3, 15]: 0.5 h | AUC0-inf ([4]; lorcaserin 2 mg/kg/day oral, F): 41 µg·h/mL and 40.9 ± 1.6 µg·h/mL | AUClast ([4]; lorcaserin 2 mg/kg/day oral, F): 39.3 ± 1.8 µg·h/mL | Cmax ([4]; lorcaserin 2 mg/kg/day oral, F): 4580 ng/mL | tmax ([4]; lorcaserin 2 mg/kg/day oral, F): 1.5 ± 0.6 h | AUC0-inf ([4]; lorcaserin 2 mg/kg/day oral, M): 62 µg·h/mL and 61.6 ± 15.4 µg·h/mL | AUClast ([4]; lorcaserin 2 mg/kg/day oral, M): 56.4 ± 14.3 µg·h/mL | Cmax ([4]; lorcaserin 2 mg/kg/day oral, M): 5010 ng/mL | tmax ([4]; lorcaserin 2 mg/kg/day oral, M): 3.0 ± 1.2 h | AUC0-inf [4, 10]: 307 ± 66 µg·h/mL | AUClast [4, 10]: 269 ± 40 µg·h/mL | Cmax [4, 10]: 27500 ± 6600 ng/mL | tmax [4, 10]: 2.5 ± 1.0 h | AUC0-inf [4, 11]: 312 ± 79 µg·h/mL | AUClast [4, 11]: 276 ± 74 µg·h/mL | Cmax [4, 11]: 22000 ± 7600 ng/mL | tmax [4, 11]: 3.3 ± 1.5 h | AUC0-inf [4, 8]: 877 ± 221 µg·h/mL | AUClast [4, 8]: 771 ± 182 µg·h/mL | Cmax [4, 8]: 56300 ± 13400 ng/mL | tmax [4, 8]: 5.2 ± 2.4 h | AUC0-inf [4, 9]: 1060 ± 313 µg·h/mL | AUClast [4, 9]: 904 ± 228 µg·h/mL | Cmax [4, 9]: 62300 ± 14100 ng/mL | tmax [4, 9]: 4.7 ± 1.6 h | AUC0-inf [4, 16]: 1910 ± 865 µg·h/mL | AUClast [4, 16]: 1580 ± 501 µg·h/mL | Cmax [4, 16]: 115000 ± 24000 ng/mL | tmax [4, 16]: 3.5 ± 2.5 h | AUC0-inf [4, 17]: 2020 ± 856 µg·h/mL | AUClast [4, 17]: 1460 ± 269 µg·h/mL | Cmax [4, 17]: 106000 ± 31000 ng/mL | tmax [4, 17]: 3.7 ± 2.3 h | AUC0-inf in monkeys relative to predicted daily exposure in severe renal impairment ([4]; monkeys 2 mg/kg/day (NOAEL), human 10 mg BID): 1.6-2.4 times | Cmax in monkeys relative to predicted Cmax in severe renal impairment ([4]; monkeys 2 mg/kg/day (NOAEL), human 10 mg BID steady state): approximately 5 times | Cmax margin, monkeys vs predicted exposure in severe renal impairment ([4]; monkeys 10 mg/kg/day): 20-25 times | AUC0-inf exposure margin, monkeys vs predicted daily exposure in severe renal impairment ([4]; monkeys 10 mg/kg/day, human 10 mg BID): about 12 fold | Dose proportionality of plasma exposure [4]: less than dose proportional

C[C@H]1CNCCc2ccc(Cl)cc21 [Lorcaserin, (R)-8-chloro-1-methyl-2,3,4,5-tetrahydro-1H-3-benzazepine]
Excess body weight lost ([5]; first phase 3 trial, based on a normal BMI of 25): about one-third | Average weight lost, of their weight ([5]; phase 3 program): about 8% | Risk of cardiac valvulopathy ([5]; phase 3 program): did not increase the risk | Patients who achieved at least 5% weight loss [5, 18]: About two-thirds | Patients who achieved at least 10% weight loss [5, 18]: over one-third | Average weight loss, top quartile of patients ([5]; second phase 3 trial): 35 pounds | Average weight loss, top quartile of patients, of body weight ([5]; second phase 3 trial): 16% | Dose proportionality of plasma exposure [4]: dose linear
